From PMC11456916, “A screen for cell envelope stress uncovers an inhibitor of prolipoprotein diacylglyceryl transferase, Lgt, in Escherichiacoli” (iScience, 2024) come the findings set out here.

Data set [1] deals with E. coli ΔtolC-pore. Description: MIC assay, E. coli ΔtolC-pore. It is filed as cell-based. On the procedure:
(§1) For MIC assays, cultures of bacteria were grown in LB broth. Overnight cultures were diluted (1:100) into fresh LB media and grown to the mid-log phase of growth (OD600 ∼0.5). Subcultures were then normalized to an OD600 of 0.1, and diluted (1:5000) into assay media. Assay plates were then incubated for 18 h at 37°C, then OD600 was measured using a Biotek Neo plate reader.

The test system of the next data set is E. coli CO244. Description: MIC assay with or without SPR741, E. coli CO244. The settings on record: Escherichia coli. It is filed as cell-based. How it is done: (§2) We next sought to determine whether we could achieve growth inhibition of wild-type E. coli using MAC-0452936 and an antibiotic adjuvant. […] To that end, we determined the MIC of MAC-0452936 against wild-type E. coli in the presence and absence of a sub-MIC concentration of SPR741 (Figure S8B). […] We leveraged this combination to characterize the spectrum of activity of MAC-0452936 against a panel of Gram-negative pathogens (Table 2). In the presence of 8 μg/mL SPR741, we observed MAC-0452936 activity against the clinical E. coli isolates C0244 and CFT073 at 2 μg/mL as well as against Salmonella Typhimurium SL1344 at 4 μg/mL.
as §1

The subject of another data set is K. aerogenes CO045. Briefly: MIC assay with or without SPR741, K. aerogenes. The format is cell-based, Klebsiella aerogenes. The settings on record: for MIC: Klebsiella aerogenes. How it is done: as §2, §1
In data set [2] the test system is E. coli ΔtolC-pore. Briefly: Selection of spontaneous resistance mutants. It is filed as cell-based. The settings on record: E. coli ΔtolC-pore plated on LB agar with 4×, 8× and 16× MIC. An excerpt: The point mutations in Lgt were the only mutations identified in all five isolates (the Illumina sequencing and BreSeq alignment files have been made available in an online data repository, https://zenodo.org/records/11068394). Lgt catalyzes the essential transfer of diacylglycerol from phosphatidyl-glycerol (PG) to the terminal cysteine of pre-prolipoproteins[48] and was also identified as a possible target in our CRISPRi screen for rcsA bioreporter induction (Figures 2E and S3). When mapped to a recently solved crystal structure of E. coli Lgt,[49] the three distinct variants identified in our resistant clones (A37T, V109A, and G138A) were found on three proximal α-helices in the substrate binding pocket of the enzyme (Figure 4B).
A culture of E. coli ΔtolC-pore was grown overnight in LB broth at 37°C with shaking, then, ∼6 × 10^8 CFU in 100 μL of LB broth was plated on LB agar plates containing 4, 8, or 16 μg/mL of MAC-0452936. Plates were then incubated at 37°C, and examined every 24 h for the emergence of resistant colonies. Colonies began to emerge after 48 h of incubation and were purified by restreaking on LB agar and LB agar containing the same concentrations of MAC-0452936 from which the colonies originally appeared. […] DNA samples were sequenced on the Illumina MiSeq platform (SeqCenter LLC) and reads were aligned to the E. coli BW25113 reference genome using Breseq[77] […]

The next data set relates to human red blood cells. Description: Haemolysis assay. The format is cell-based. The settings on record: 37°C, 1 h. On the procedure: (§3) To determine the haemolytic activity and cytotoxicity of MAC-0452936, pooled human blood and HEK293t cells were used, respectively. Fresh pooled human blood for haemolytic assay was acquired from […] Technologies, whilst, HEK293t cells were originally acquired from ATCC (Cat# CRL-3216) and were regularly grown in […] (DMEM) with 10% fetal bovine serum (FBS), L-glutamine and incubated at 37°C. Cell lines are regularly tested for mycoplasma contamination.
Haemolytic activity of MAC-0452936 was assessed as described previously. Fresh human blood (10 mL, Stem Cell Technologies, USA) was centrifuged at 4,000 rpm for 10 min. The supernatant was discarded, and the pellet was rinsed three times with 1× PBS. Subsequently, the pellet was diluted 1:5 (v/v) in 1× PBS and RBC suspensions (0.5 mL each) were incubated with varying concentrations of test compounds at 37°C for 1 h. Following this, the cell suspensions were centrifuged at 5,000g for 10 min and the supernatant was meticulously collected without disturbing the pellet. Hemolysis was assessed by measuring the absorbance of the released hemoglobin in the supernatant at 540 nm using a spectrophotometer. Triton X-100 (0.1%) was used as the positive control causing 100 per cent hemolysis. All experiments were performed in triplicates.

The subject of a further data set is HEK293t cells. Briefly: In vitro cytotoxicity (PrestoBlue cell viability). The format is cell-based, human. The settings on record: 24 h. How it is done:
as §3
The cytotoxicity of MAC-0452936 on HEK293t cells was determined by performing a cell viability assay using PrestoBlue Cell Viability Reagent (Invitrogen). 3 × 10^4 cells/mL were seeded in tissue culture-treated 96-well plates (Nunc; white opaque with clear bottom) in […] (DMEM) with 10% fetal bovine serum (FBS), L-glutamine and incubated at 37°C for 24 h in 5% CO2. The cells were then treated with varying concentrations of MAC-0452936 and similar percentage of DMSO as in drug (solvent control) for 24 h at 37°C. PrestoBlue reagent (20 μL) was added to the wells and incubated for 1 h in the CO2 incubator before reading the plates at excitation/emission wavelength of 560/590 nm on the Biotek Synergy Neo2 plate reader. Fluorescence values were expressed as percentage and inhibition with respect to solvent control was calculated.

Values after ≈ are worked out from the molar mass of the structure shown. Where two headings read alike, the source gives them in different places. Bounds are passed on as bounds.

In the case of `COc1ccc(C(=O)O/N=C(\c2cccs2)C(C)(C)C)cc1` [MAC-0452936, (Z)-2-Pivaloylthiophene O-(4-methoxybenzoyl) oxime], in the data set on E. coli ΔtolC-pore [1] (LB, 18 h), the “MIC, E. coli ΔtolC-pore” value was determined as 0.5 µg/mL (≈ 1.58 µM). Further, in the data set on E. coli ΔtolC-pore [1] (growth inhibition, in words), the “activity against E. coli ΔtolC-pore” value is listed as “active”. In addition, the MIC in the data set on E. coli CO244 (CO244, read-out: MIC, E. coli CO244 + 8 μg/mL SPR741) was 2 µg/mL; in the data set with E. coli CO244 (CO244, read-out: MIC, E. coli CO244 + 0 μg/mL SPR741) it was greater than 64 µg/mL; in the data set on K. aerogenes CO045 (CO045, read-out: MIC, K. aerogenes CO045 + 8 μg/mL SPR741), greater than 64 µg/mL; with K. aerogenes CO045 (CO045, read-out: MIC, K. aerogenes CO045 + 0 μg/mL SPR741), greater than 64 µg/mL. The “MIC, K. aerogenes CO045 + 8 μg/mL SPR741” value with K. aerogenes CO045 (8 μg/mL SPR741) is “did not observe MAC-0452936 activity”. Moreover, the frequency of resistance in the data set on E. coli ΔtolC-pore [2] was 2 x 10^−8. Further, the resistant isolates identified entry in the data set on E. coli ΔtolC-pore [2] is reported as “five independent resistant isolates were generated”. Moreover, the “hemolysis of human red blood cells” value with human red blood cells is on record as “did not observe hemolysis”. Further, the “concentrations giving a modest decrease in the viability of HEK-293 cells” value in the data set with HEK293t cells is “greater than 8 μg/mL”. Also, the “cytotoxicity to HEK-293 cells” value with HEK293t cells (at MIC concentrations) was “did not observe”.
